Reference: US20230190717A1, “P38 GAMMA INHIBITORS AND METHOD OF USE THEREOF” (City of Hope, priority 2017, published 2023)

Key:
Type in all cases: cell-based, human
DU-145 = test: NCI-60 cytotoxicity, DU-145; settings: DU-145 (Prostate), 72 h
Description: (§1) Briefly, human NCI-60 cancer cell lines were counted with a Vi-CELL Cell Viability Analyzer (Beckman Coulter), resuspended in RPMI-1640 medium containing 10% FBS and 1% penicillin/streptomycin and dispensed in wells of 96-well microplates (3000 cells per well for solid tumor and 5000 per well for blood tumor cells) using an epMotion 5075 liquid handler (Eppendorf) under a sterile condition, followed by incubation overnight at 37° C. in 5% (v/v) CO2. Cells were exposed to compounds in a dose-dependent manner for 72 h. An MTS dye (20 uL per well) was added to each well. Cell viability was determined by tetrazolium conversion to its […] dye. […] Each experiment was performed in duplicate. […] H9 cells are more sensitive to drugs, therefore instead of 72 hours, we choose 48 hour the incubation time for H9 cells.
(§2) IC50 values were determined using […] software (Biosoft).

SN12C = test: NCI-60 cytotoxicity, SN12C; settings: SN12C (Renal), 72 h
Description: as §1, §2

U251 = test: NCI-60 cytotoxicity, U251; settings: U251 (CNS), 72 h
Description: as §1, §2

KM12 = test: NCI-60 cytotoxicity, KM12; settings: KM12 (Colon), 72 h
Description: as §1, §2

MOLT-4 = test: NCI-60 cytotoxicity, MOLT-4; settings: MOLT-4 (ALL), 72 h
Description: as §1, §2

HCT-116 = test: NCI-60 cytotoxicity, HCT-116; settings: HCT-116 (Colon), 72 h
Description: as §1, §2

HT29 = test: NCI-60 cytotoxicity, HT29; settings: HT29 (Colon), 72 h
Description: as §1, §2

HCT-15 = test: NCI-60 cytotoxicity, HCT-15; settings: HCT-15 (Colon), 72 h
Description: as §1, §2

OVCAR-8 = test: NCI-60 cytotoxicity, OVCAR-8; settings: OVCAR-8 (Ovarian), 72 h
Description: as §1, §2

CCRF-CEM = test: NCI-60 cytotoxicity, CCRF-CEM; settings: CCRF-CEM (Leukemia), 72 h
Description: as §1, §2

T-47D = test: NCI-60 cytotoxicity, T-47D; settings: T-47D (Breast), 72 h
Description: as §1, §2

HS 578T = test: NCI-60 cytotoxicity, HS 578T; settings: HS 578T (Breast), 72 h
Description: as §1, §2

786-0 = test: NCI-60 cytotoxicity, 786-0; settings: 786-0 (Renal), 72 h
Description: as §1, §2

OVCAR-3 = test: NCI-60 cytotoxicity, OVCAR-3; settings: OVCAR-3 (Ovarian), 72 h
Description: as §1, §2

NCI-H460 = test: NCI-60 cytotoxicity, NCI-H460; settings: NCI-H460 (Lung), 72 h
Description: as §1, §2

A549 = test: NCI-60 cytotoxicity, A549; settings: A549 (Lung), 72 h
Description: as §1, §2

ACHN = test: NCI-60 cytotoxicity, ACHN; settings: ACHN (Renal), 72 h
Description: as §1, §2

MDA-MB-468 = test: NCI-60 cytotoxicity, MDA-MB-468; settings: MDA-MB-468 (Breast), 72 h
Description: as §1, §2

SF-539 = test: NCI-60 cytotoxicity, SF-539; settings: SF-539 (CNS), 72 h
Description: as §1, §2

NCI-H226 = test: NCI-60 cytotoxicity, NCI-H226; settings: NCI-H226 (Lung), 72 h
Description: Cells were exposed to compounds in a dose-dependent manner for 72 h. An MTS dye (20 uL per well) was added to each well. Cell viability was determined by tetrazolium conversion to its format an dye. Absorbance was monitored at 490 nm using an automated BMG PHERAstar plate reader (BMG Labtech). Each experiment was performed in duplicate. IC50 values were determined using CalcuSyn software (Biosoft).
Absorbance was monitored at 490 nm using an automated BMG PHERAstar plate reader (BMG Labtech). […] All experiments are repeated in three independent experiments and data represented are the average of triplicate experiments.

HOP-62 = test: NCI-60 cytotoxicity, HOP-62; settings: HOP-62 (Lung), 72 h
Description: as §1, §2

K-562 = test: NCI-60 cytotoxicity, K-562; settings: K-562 (CML), 72 h
Description: as §1, §2

HOP-92 = test: NCI-60 cytotoxicity, HOP-92; settings: HOP-92 (Lung), 72 h
Description: as §1, §2

SF-268 = test: NCI-60 cytotoxicity, SF-268; settings: SF-268 (CNS), 72 h
Description: as §1, §2

OVCAR-5 = test: NCI-60 cytotoxicity, OVCAR-5; settings: OVCAR-5 (Ovarian), 72 h
Description: as §1, §2

MCF7 = test: NCI-60 cytotoxicity, MCF7; settings: MCF7 (Breast), 72 h
Description: as §1, §2

M14 = test: NCI-60 cytotoxicity, M14; settings: M14 (Melanoma), 72 h
Description: as §1, §2

`O=C1NC(=NCc2cccs2)S/C1=C\c1ccc2ncccc2c1` [Compound A10] was tested, and the IC50 (DU-145) was 1380 nM, the IC50 (SN12C) was greater than 10000 nM and the IC50 (U251) was 1920 nM. For the same molecule, the IC50 (KM12) was greater than 10000 nM, the IC50 (MOLT-4) was 5.2 µM and the IC50 (HCT-116) was 3200 nM. For the same molecule, the IC50 (HT29) was greater than 10 µM, the IC50 (HCT-15) was 3840 nM and the IC50 (OVCAR-8) was greater than 10 µM. It also gave an IC50 (CCRF-CEM) of 2500 nM, an IC50 (T-47D) of 6.19 µM and an IC50 (HS 578T) of 5.83 µM. For the same molecule, the IC50 (786-0) was 7.77 µM, the IC50 (OVCAR-3) was greater than 10000 nM and the IC50 (NCI-H460) was greater than 10000 nM. It also gave an IC50 (A549) greater than 10 µM, an IC50 (ACHN) of 4.46 µM and an IC50 (MDA-MB-468) of 6970 nM. For the same molecule, the IC50 (SF-539) was 2550 nM, the IC50 (NCI-H226) was greater than 10 µM and the IC50 (HOP-62) was greater than 10 µM. For the same molecule, the IC50 (K-562) was greater than 10 µM, the IC50 (HOP-92) was 6.04 µM and the IC50 (SF-268) was greater than 10 µM. It also gave an IC50 (OVCAR-5) greater than 10 µM.

With `Cc1ccc([N+](=O)[O-])cc1S(=O)(=O)N(C)/N=C/c1cnc2ccc(Br)cn12` [Compound 1] the IC50 (DU-145; Homo sapiens) was 1 nM, the IC50 (SN12C; Homo sapiens) was 468 nM and the IC50 (U251; Homo sapiens, U-251) was 253 nM. For the same molecule, the IC50 (KM12; Homo sapiens) was 6 nM, the IC50 (MOLT-4; Homo sapiens) was 0.527 µM and the IC50 (HCT-116; Homo sapiens) was 1 nM. For the same molecule, the IC50 (HT29; Homo sapiens, HT-29) was 0.087 µM, the IC50 (HCT-15; Homo sapiens) was 8 nM and the IC50 (OVCAR-8; Homo sapiens) was 0.059 µM. It also gave an IC50 (CCRF-CEM; Homo sapiens) of 3720 nM, an IC50 (T-47D; Homo sapiens, T47D) greater than 10 µM and an IC50 (HS 578T; Homo sapiens) of 0.586 µM. The IC50 (786-0; Homo sapiens) was 0.008 µM, the IC50 (OVCAR-3; Homo sapiens) was 71 nM and the IC50 (NCI-H460; Homo sapiens) was 10 nM. The IC50 (A549; Homo sapiens) was 2.66 µM, the IC50 (ACHN; Homo sapiens) was 0.092 µM and the IC50 (MDA-MB-468; Homo sapiens) was 103 nM. For the same molecule, the IC50 (SF-539; Homo sapiens) was 177 nM, the IC50 (HOP-62; Homo sapiens) was 0.008 µM and the IC50 (MCF7; Homo sapiens) was 238 nM. For the same molecule, the IC50 (K-562; Homo sapiens, K562) was 0.416 µM, the IC50 (HOP-92; Homo sapiens) was 0.094 µM and the IC50 (SF-268; Homo sapiens) was 2.23 µM. It also gave an IC50 (OVCAR-5; Homo sapiens) of 0.04 µM and an IC50 (M14; Homo sapiens) of 195 nM.

`O=C1NCCc2[nH]c(-c3ccncc3)cc21` [Compound A11] was tested, and the IC50 (DU-145) was 2260 nM, the IC50 (U251) was 4570 nM and the IC50 (KM12) was 2280 nM. The IC50 (MOLT-4) was 6.98 µM, the IC50 (HCT-116) was 1260 nM and the IC50 (HT29) was 5.04 µM. It also gave an IC50 (HCT-15) of 2540 nM, an IC50 (OVCAR-8) of 3.6 µM and an IC50 (CCRF-CEM) of 2500 nM. For the same molecule, the IC50 (T-47D) was greater than 10 µM, the IC50 (HS 578T) was greater than 10 µM and the IC50 (786-0) was 9.3 µM. The IC50 (OVCAR-3) was 2520 nM, the IC50 (A549) was greater than 10 µM and the IC50 (ACHN) was greater than 10 µM. It also gave an IC50 (MDA-MB-468) of 1770 nM, an IC50 (SF-539) of 3680 nM and an IC50 (NCI-H226) greater than 10 µM. For the same molecule, the IC50 (HOP-62) was 9.94 µM, the IC50 (MCF7) was 3770 nM and the IC50 (K-562) was greater than 10 µM. For the same molecule, the IC50 (HOP-92) was 6.4 µM, the IC50 (SF-268) was greater than 10 µM and the IC50 (OVCAR-5) was 5.31 µM. The IC50 (M14) was 3330 nM.
